IC50 data for 16 compounds are collected here from US12466822B2, “Heterocyclic compounds as immunomodulators” (Incyte Corporation, priority 2016, dated 2025).

Where only a bound is given, the exact number is not on record here.

The target of this experiment is T1, PD-1/PD-L1 protein/protein interaction (recombinant human PD-L1 protein (19-238), recombinant human PD-1 protein (25-167)) (Homo sapiens, UniProt Q9NZQ7).
T1 construct: Recombinant human PD-L1 protein (19-238) with a His-tag at the C-terminus; purchased AcroBiosystems PD1-H5229 (PD-L1-His); PD1-H5257 (PD-1-Fc)
T1 sequence (Q9NZQ7 19-238): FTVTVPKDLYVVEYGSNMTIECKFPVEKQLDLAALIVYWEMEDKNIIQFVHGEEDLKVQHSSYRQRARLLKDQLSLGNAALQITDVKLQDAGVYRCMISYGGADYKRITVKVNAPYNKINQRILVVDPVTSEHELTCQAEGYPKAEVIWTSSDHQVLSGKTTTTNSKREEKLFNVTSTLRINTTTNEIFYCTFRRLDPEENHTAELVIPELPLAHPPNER
The experiment is described as follows: PD-1/PD-L1 Homogeneous Time-Resolved Fluorescence (HTRF) Binding Assay. Particulars: 25° C., PBS buffer (pH 7.4), 40 minutes preincubation with inhibitors. The protocol: The assays were conducted in a standard black 384-well polystyrene plate with a final volume of 20 μL. Inhibitors were first serially diluted in DMSO and then added to the plate wells before the addition of other reaction components. The final concentration of DMSO in the assay was 1%. The assays were carried out at 25° C. in the PBS buffer (pH 7.4) with 0.05% Tween-20 and 0.1% BSA. Recombinant human PD-L1 protein (19-238) with a His-tag at the C-terminus was purchased from AcroBiosystems (PD1-H5229). Recombinant human PD-1 protein (25-167) with Fc tag at the C-terminus was also purchased from AcroBiosystems (PD1-H5257). PD-L1 and PD-1 proteins were diluted in the assay buffer and 10 μL was added to the plate well. Plates were centrifuged and proteins were preincubated with inhibitors for 40 minutes. The incubation was followed by the addition of 10 μL of HTRF detection buffer supplemented with Europium cryptate-labeled anti-human IgG (PerkinElmer-AD0212) specific for Fc and anti-His antibody conjugated to SureLight®-Allophycocyanin (APC, PerkinElmer-AD0059H). After centrifugation, the plate was incubated at 25° C. for 60 min. before reading on a PHERAstar FS plate reader (665 nm/620 nm ratio). Final concentrations in the assay were […], 10 nM PD-L1, 1 nM europium anti-human IgG and 20 nM anti-His-Allophycocyanin. IC50 determination was performed by fitting the curve of percent control activity versus the log of the inhibitor concentration using the GraphPad Prism 5.0 software.
Background: In TR-FRET formats the signal depends on donor and acceptor labels being close together.
In the case of `Cn1cc(CN2CC[C@@H](O)C2)cc(C(=O)Nc2cccc(-c3cccc(Nc4nccc5cc(CN6CC(C(=O)O)C6)cnc45)c3Cl)c2Cl)c1=O` [Example 16, (R)-1-((8-(2,2′-dichloro-3′-(5-((3-hydroxypyrrolidin-1-yl)methyl)-1-methyl-2-oxo-1,2-dihydropyridine-3-carboxamido)biphenyl-3-ylamino)-1,7-naphthyridin-3-yl)methyl)azetidine-3-carboxylic acid], the half-inhibitory concentration (IC50) is ≤ 10 nM.

With `Cn1cc(CNCCO)cc(C(=O)Nc2cccc(-c3cccc(Nc4nccc5cc(CN6CC(C(=O)O)C6)cnc45)c3Cl)c2Cl)c1=O` [Example 17, 1-((8-(2,2′-dichloro-3′-(5-((2-hydroxyethylamino)methyl)-1-methyl-2-oxo-1,2-dihydropyridine-3-carboxamido)biphenyl-3-ylamino)-1,7-naphthyridin-3-yl)methyl)azetidine-3-carboxylic acid], the IC50 was ≤ 10 nM. Regarding `Cn1cc(CNCC(C)(C)O)cc(C(=O)Nc2cccc(-c3cccc(Nc4nccc5cc(CN6CC(C(=O)O)C6)cnc45)c3Cl)c2Cl)c1=O` [Example 18, 1-((8-(2,2′-dichloro-3′-(5-((2-hydroxy-2-methylpropylamino)methyl)-1-methyl-2-oxo-1,2-dihydropyridine-3-carboxamido)biphenyl-3-ylamino)-1,7-naphthyridin-3-yl)methyl)azetidine-3-carboxylicacid], the concentration for half-maximal inhibition (IC50) was ≤ 10 nM. Turning to `Cc1c(Nc2nccc3cc(CNCCO)cnc23)cccc1-c1cccc(Nc2nccc3cc(CNCCO)cnc23)c1C` [Example 19, 2,2′-(((((2,2′-dimethyl-[1,1′-biphenyl]-3,3′-diyl)bis(azanediyl))bis(1,7-naphthyridine-8,3-diyl))bis(methylene))bis(azanediyl))bis(ethan-1-ol)], the IC50 was ≤ 10 nM. Take `Cc1c(Nc2nccc3cc(CN4CC[C@@H](O)C4)cnc23)cccc1-c1cccc(Nc2nccc3cc(CN4CC[C@@H](O)C4)cnc23)c1C` [Example 20, (3R,3′R)-1,1′-((((2,2′-dimethyl-[1,1′-biphenyl]-3,3′-diyl)bis(azanediyl))bis(1,7-naphthyridine-8,3-diyl))bis(methylene))bis(pyrrolidin-3-ol)]: the IC50 was ≤ 10 nM.

As for `Cc1c(Nc2nccc3cc(CNCCO)cnc23)cccc1-c1cccc(Nc2nccc3cc(CN4CC[C@@H](O)C4)cnc23)c1C` [Example 21, (R)-1-((8-(3′-(3-((2-hydroxyethylamino)methyl)-1,7-naphthyridin-8-ylamino)-2,2′-dimethylbiphenyl-3-ylamino)-1,7-naphthyridin-3-yl)methyl)pyrrolidin-3-ol], the IC50 is ≤ 10 nM. Next, `O[C@@H]1CCN(Cc2cnc3c(Nc4cccc(-c5cccc(Nc6nccc7cc(CN8CC[C@@H](O)C8)cnc67)c5Cl)c4Cl)nccc3c2)C1` [Example 22, (3R,3′R)-1,1′-((((2,2′-dichloro-[1,1′-biphenyl]-3,3′-diyl)bis(azanediyl))bis(1,7-naphthyridine-8,3-diyl))bis(methylene))bis(pyrrolidin-3-ol)]: ≤ 10 nM; `Cc1c(Nc2nccc3cc(CN4CC[C@@H](O)C4)cnc23)cccc1-c1cccc(Nc2ncnc3cc(CN4CC[C@@H](O)C4)cnc23)c1C` [Example 23, (R)-1-((4-(3′-(3-(((R)-3-hydroxypyrrolidin-1-yl)methyl)-1,7-naphthyridin-8-ylamino)-2,2′-dimethylbiphenyl-3-ylamino)pyrido[3,2-d]pyrimidin-7-yl)methyl)pyrrolidin-3-ol]: ≤ 10 nM; `Cc1c(Nc2nccc3cc(CN4CC[C@@H](O)C4)cnc23)cccc1-c1cccc(Nc2ncnc3cc(CNCCO)cnc23)c1C` [Example 24, (R)-1-((8-(3′-(7-((2-hydroxyethylamino)methyl)pyrido[3,2-d]pyrimidin-4-ylamino)-2,2′-dimethylbiphenyl-3-ylamino)-1,7-naphthyridin-3-yl)methyl)pyrrolidin-3-ol]: ≤ 10 nM.

For the compound `Cc1c(Nc2nccc3cc(CN4CC[C@@H](O)C4)cnc23)cccc1-c1cccc(Nc2ncnc3cc(CN(C)CCO)cnc23)c1C` [Example 25, (R)-1-((8-(3′-(7-(((2-hydroxyethyl)(methyl)amino)methyl)pyrido[3,2-d]pyrimidin-4-ylamino)-2,2′-dimethylbiphenyl-3-ylamino)-1,7-naphthyridin-3-yl)methyl)pyrrolidin-3-ol], the IC50 was ≤ 10 nM. The same measure for `Cc1c(Nc2nccc3cc(CN4CC[C@@H](O)C4)cnc23)cccc1-c1cccc(Nc2nccc3cc(CN4CC[C@@H](C(=O)N(C)C)C4)cnc23)c1C` [Example 26, (R)-1-((8-(3′-(3-(((R)-3-hydroxypyrrolidin-1-yl)methyl)-1,7-naphthyridin-8-ylamino)-2,2′-dimethylbiphenyl-3-ylamino)-1,7-naphthyridin-3-yl)methyl)-N,N-dimethylpyrrolidine-3-carboxamide]: ≤ 10 nM; for `Cc1c(Nc2nccc3cc(CN4CC[C@@H](O)C4)cnc23)cccc1-c1cccc(Nc2ncnc3cc(CNC[C@H](C)O)cnc23)c1C` [Example 27, (R)-1-((8-(3′-(7-(((S)-2-hydroxypropylamino)methyl)pyrido[3,2-d]pyrimidin-4-ylamino)-2,2′-dimethylbiphenyl-3-ylamino)-1,7-naphthyridin-3-yl)methyl)pyrrolidin-3-ol]: ≤ 10 nM; for `Cc1c(NC(=O)c2cc(CN3CC[C@@H](O)C3)cn(C)c2=O)cccc1-c1cccc(Nc2nccc3cc(CN4CC[C@@H](C(=O)O)C4)cnc23)c1C` [Example 28, (R)-1-((8-(3′-(5-(((R)-3-hydroxypyrrolidin-1-yl)methyl)-1-methyl-2-oxo-1,2-dihydropyridine-3-carboxamido)-2,2′-dimethylbiphenyl-3-ylamino)-1,7-naphthyridin-3-yl)methyl)pyrrolidine-3-carboxylic acid]: ≤ 10 nM. Next, `Cc1c(Nc2nccc3cc(CN4CC[C@@H](O)C4)cnc23)cccc1-c1cccc(Nc2ncnc3cc(CNC[C@@H](C)O)cnc23)c1C` [Example 29, (R)-1-((8-(3′-(7-(((R)-2-hydroxypropylamino)methyl)pyrido[3,2-d]pyrimidin-4-ylamino)-2,2′-dimethylbiphenyl-3-ylamino)-1,7-naphthyridin-3-yl)methyl)pyrrolidin-3-ol]: ≤ 10 nM; `Cc1c(Nc2nccc3cc(CN4CC[C@@H](O)C4)cnc23)cccc1-c1cccc(Nc2ncnc3cc(CNCC(C)(C)O)cnc23)c1C` [Example 30, (R)-1-((8-(3′-(7-((2-hydroxy-2-methylpropylamino)methyl)pyrido[3,2-d]pyrimidin-4-ylamino)-2,2′-dimethylbiphenyl-3-ylamino)-1,7-naphthyridin-3-yl)methyl)pyrrolidin-3-ol]: ≤ 10 nM.

For the compound `Cc1c(Nc2nccc3cc(CN4CC[C@@H](C(=O)O)C4)cnc23)cccc1-c1cccc(NC(=O)c2nc3c(n2C)CCN(C)C3)c1Cl` [Example 31, (R)-1-((8-(2′-chloro-3′-(1,5-dimethyl-4,5,6,7-tetrahydro-1H-imidazo[4,5-c]pyridine-2-carboxamido)-2-methylbiphenyl-3-ylamino)-1,7-naphthyridin-3-yl)methyl)pyrrolidine-3-carboxylic acid], the half-maximal inhibitory concentration (IC50) was ≤ 10 nM.

What is called IC50 is the concentration needed to halve the response being measured.
